In patent publication US8513027B2, “Method of identifying an inhibitor of the prostanoid EP4 receptor” (Asterand UK Acquisition Limited, priority 1998, dated 2013):

Key:
[1] = system: human cerebral artery rings; assay: tone of isolated human cerebral artery rings exposed to prostanoid receptor agonists; type: cell-based; conditions: for effect on smaller diameter cerebral artery rings contracted with phenylephrine, TP receptors blocked: phenylephrine 1 μM, GR32191 1 μM in bathing solution
Experimental: Sections of cerebral artery were removed from different regions of preparations of human cerebral vasculature containing an intact circle of Willis. Intact rings of this cerebral artery, 2-3 mm in length, were set up under isometric conditions in 10 ml organ baths under an initial tension of 1 g. All tissues were maintained at 37° C. and gassed constantly with 95% O2/5% CO2. Following a 90 min equilibration period all tissues were challenged with phenylephrine (1 μM), to determine tissue viability. Once a stable contraction had been obtained, tissues were exposed to a range of prostanoid receptor agonists, in the absence or presence of receptor antagonists, to determine the functional role of prostanoid receptors in maintaining arterial tone.

[2] = system: EP1; conditions: cited from earlier work
[3] = molecular target: EP2 (Homo sapiens, UniProt P43116); conditions: cited from earlier work
[4] = molecular target: T1, EP3 (Homo sapiens, UniProt P43115); conditions: cited from earlier work
T1 sequence (P43115 1-390): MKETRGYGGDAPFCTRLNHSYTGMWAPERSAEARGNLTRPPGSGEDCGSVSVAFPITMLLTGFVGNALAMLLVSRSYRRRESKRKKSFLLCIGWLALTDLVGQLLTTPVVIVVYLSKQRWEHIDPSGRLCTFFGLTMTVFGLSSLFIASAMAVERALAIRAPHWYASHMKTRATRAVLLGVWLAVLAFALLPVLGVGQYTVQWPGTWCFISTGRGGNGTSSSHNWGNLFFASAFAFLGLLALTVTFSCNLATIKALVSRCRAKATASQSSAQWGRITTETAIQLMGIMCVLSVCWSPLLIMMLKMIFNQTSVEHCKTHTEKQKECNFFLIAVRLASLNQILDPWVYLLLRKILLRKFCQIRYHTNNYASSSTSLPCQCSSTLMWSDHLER

[5] = molecular target: T2, EP4 receptors (Sus scrofa, UniProt I3LLK4); conditions: blockade of EP4 receptors; cited from earlier work
T2 construct: providing a natural source of the receptors, such as piglet saphenous vein; from tissue; host or cells: piglet saphenous vein rings

[6] = molecular target: T3, EP4 receptor (Homo sapiens, UniProt P35408); assay: antagonism of PGE2-mediated relaxation of phenylephrine pre-contracted middle cerebral artery rings; type: cell-based; conditions: 10 mM AH23848, 45 mins; P=0.004
T3 construct: Intact rings of this cerebral artery, 2-3 mm in length, were set up under isometric conditions; from tissue; host or cells: human middle cerebral artery rings (one donor)
Experimental: Sections of cerebral artery were removed from different regions of preparations of human cerebral vasculature containing an intact circle of Willis. […] Once a stable contraction had been obtained, tissues were exposed to a range of prostanoid receptor agonists, in the absence or presence of receptor antagonists, to determine the functional role of prostanoid receptors in maintaining arterial tone.
To test the effect of the EP4 receptor antagonist AH23848, cerebral rings were preincubated for 45 mins with 10 mM AH23848.

[7] = system: pulmonary artery; assay: effect on pre-contracted pulmonary artery rings; type: cell-based, human; conditions: tone induced with U-46619 10-100 nM; n=3 donors
Experimental: (§1) Rings (2-4 mm internal diameter) were prepared from sections of pulmonary or coronary artery (n=3 each). They were mounted in organ baths under isometric conditions, in gassed Krebs solution (containing indomethacin) at 37° C., and 1-1.5 g initial tone.

[8] = system: coronary artery; assay: effect on pre-contracted coronary artery rings; type: cell-based, human; conditions: n=3 donors; for relaxation of coronary artery: tone induced with phenylephrine 1-10 μM or endothelin-1
Experimental: as §1

T2 sequence (I3LLK4 1-489): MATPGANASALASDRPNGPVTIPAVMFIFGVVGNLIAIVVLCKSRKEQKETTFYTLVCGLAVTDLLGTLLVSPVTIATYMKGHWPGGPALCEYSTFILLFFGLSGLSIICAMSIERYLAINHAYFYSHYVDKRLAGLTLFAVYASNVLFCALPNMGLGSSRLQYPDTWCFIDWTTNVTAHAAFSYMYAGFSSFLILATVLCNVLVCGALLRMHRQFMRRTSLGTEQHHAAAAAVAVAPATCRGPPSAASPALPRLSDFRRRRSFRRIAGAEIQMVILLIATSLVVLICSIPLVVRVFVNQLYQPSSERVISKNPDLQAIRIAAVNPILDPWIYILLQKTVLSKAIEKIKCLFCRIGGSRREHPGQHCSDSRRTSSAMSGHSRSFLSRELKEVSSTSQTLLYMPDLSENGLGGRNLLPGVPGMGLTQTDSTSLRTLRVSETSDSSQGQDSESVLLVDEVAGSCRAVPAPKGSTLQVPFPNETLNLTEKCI
Sequence of EP2 (P43116 whole entry): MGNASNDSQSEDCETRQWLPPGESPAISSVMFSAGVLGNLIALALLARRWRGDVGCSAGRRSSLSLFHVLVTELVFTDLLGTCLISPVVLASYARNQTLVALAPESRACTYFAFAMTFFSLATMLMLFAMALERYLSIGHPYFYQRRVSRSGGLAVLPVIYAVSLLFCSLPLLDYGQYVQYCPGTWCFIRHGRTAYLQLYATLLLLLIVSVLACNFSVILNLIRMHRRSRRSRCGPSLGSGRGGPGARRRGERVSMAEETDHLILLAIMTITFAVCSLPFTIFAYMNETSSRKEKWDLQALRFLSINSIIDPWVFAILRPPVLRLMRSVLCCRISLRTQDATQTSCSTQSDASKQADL
T3 sequence (P35408 whole entry): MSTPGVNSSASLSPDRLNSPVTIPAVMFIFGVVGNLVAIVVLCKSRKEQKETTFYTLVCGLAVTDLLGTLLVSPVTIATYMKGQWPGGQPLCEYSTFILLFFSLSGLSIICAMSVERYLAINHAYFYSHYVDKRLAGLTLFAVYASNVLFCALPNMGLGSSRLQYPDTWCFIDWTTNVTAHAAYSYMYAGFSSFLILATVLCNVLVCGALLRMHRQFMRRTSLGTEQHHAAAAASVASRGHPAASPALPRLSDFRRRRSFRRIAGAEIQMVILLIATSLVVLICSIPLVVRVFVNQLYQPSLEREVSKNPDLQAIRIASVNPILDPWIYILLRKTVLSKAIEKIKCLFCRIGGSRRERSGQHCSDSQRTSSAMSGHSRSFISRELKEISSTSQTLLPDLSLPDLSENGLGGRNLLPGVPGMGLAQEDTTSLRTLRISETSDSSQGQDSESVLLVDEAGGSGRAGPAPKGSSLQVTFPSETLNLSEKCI

For CCCCCC(O)c1ccc([C@@H]2CCC(=O)[C@H]2CCCCCCC(=O)O)cc1 (relative stereo) [AH13205, trans-2-(4-[1-hydroxyhexyl]phenyl)-5-oxocyclopentaneheptanoate], the “effect on smaller diameter cerebral artery rings contracted with phenylephrine, TP receptors blocked” value (from here on “effect … TP receptors blocked”) [1] was “neither compound caused relaxation”.
For O=C(O)CCC/C=C\C[C@@H]1C(N2CCOCC2)C(=O)C[C@@H]1OCc1ccc(-c2ccccc2)cc1 (stereo partly shown) [AH22921], the “effect on EP1 receptor subtype” value [2] is given as “no effect”, the “effect on EP2 receptor subtype” value [3] is given as “no effect” and the “effect on EP3 receptor subtype” value [4] is given as “no effect”. The “pA2 against PGE2-induced relaxation of piglet saphenous vein” value [5] was 5.3.
In the case of O=C(O)CC/C=C\CC[C@@H]1C(N2CCOCC2)C(=O)C[C@@H]1OCc1ccc(-c2ccccc2)cc1 (stereo partly shown) [AH23848], the “effect on EP1 receptor subtype” value [2] is given as “no effect”, the “shift of PGE2-mediated relaxation curve” value [6] is given as “significant rightward shift” and the “effect on EP2 receptor subtype” value [3] is given as “no effect”. The “effect on EP3 receptor subtype” value [4] was “no effect” and the “pA2 against PGE2-induced relaxation of piglet saphenous vein” value [5] was 5.4.
In the case of CCCC1([C@H](O)C/C=C/[C@H]2[C@H](O)CC(=O)[C@@H]2CCCCCCC(=O)OC)CCC1 [Butaprost], the “effect … TP receptors blocked” value [1] is reported as “neither compound caused relaxation”.
For CC#CCC(C)[C@H](O)/C=C/[C@@H]1[C@H]2C/C(=C/CCCC(=O)O)C[C@H]2C[C@H]1O (stereo partly shown) [Iloprost], the “effect … TP receptors blocked” value [1] was “induced relaxation”.
For CCCCC[C@H](O)/C=C/[C@H]1C(=O)C[C@H](O)[C@@H]1C/C=C\CCCC(=O)O [PGD2], the “effect … TP receptors blocked” value [1] was “without effect”.
For CCCCC[C@H](O)/C=C/[C@H]1[C@H](O)CC(=O)[C@@H]1C/C=C\CCCC(=O)O [PGE2, prostaglandin E2], the “relaxation of cerebral artery rings pre-contracted with U46619 or 5-HT” value ([1]; U46619 100 nM or 5-HT 300 nM and 1 μM, FIG. 2) was “maximal or near maximal relaxation”, the “effect of removal of the endothelium on the relaxant response” value ([1]; human cerebral arteries) was “did not affect” and the “effect on smaller pre-contracted cerebral vessels” value ([1]; internal diameter <1 mm, pre-contracted with phenylephrine) was “potent concentration-related relaxation”. For the same compound, the “effect on larger cerebral vessels” value ([1]; internal diameter >1 mm) was “concentration-related contraction”, the “concentration at which maximum relaxation occurs” value ([1]; vessel pre-contracted with phenylephrine, FIG. 1) was “below 10^−6 M” and the “relaxation of pulmonary artery” value [7] was “did not cause relaxation”. The “contraction of coronary artery” value ([8]; pre-contracted preparations) was “small contraction” and the “relaxation of coronary artery” value [8] was “did not cause relaxation”.
With CCCCC[C@H](O)/C=C/[C@@H]1[C@@H](C/C=C\CCCC(=O)O)[C@@H](O)C[C@H]1O [PGF2α] the “effect … TP receptors blocked” value [1] was “without effect”.
In the case of CCC#CC[C@H](C)[C@H](O)C#C[C@@H]1[C@H]2C/C(=C/COCC(=O)O)C[C@H]2C[C@H]1O [cicaprost], the “effect … TP receptors blocked” value [1] is reported as “induced relaxation”, the “relaxation of pulmonary artery” value [7] is reported as “induced a relaxation” and the “relaxation of coronary artery” value [8] is reported as “induced a relaxation”.
